Experimental data: article PMC10762035, “Molecular basis of human trace amine-associated receptor 1 activation” (Nature Communications, 2024)
Changes are numbered by the printed parent chain. “And” between values parts separate entries of the source, which are not always exact repeats. Equal entries are not always repeated. Where two headings read alike, the source gives them in different places.

Experiments:
Type in all cases: cell-based
[1] = target: T1, hTA1 I290N (Homo sapiens, UniProt Q96RJ0, I290N); test: GloSensor cAMP accumulation assay, I290N mutant;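 further: cells transiently co-expressing hTA1 and the GloSensor cAMP biosensor, luminescence read 30 min after compound addition at room temperature, efficacy scaled to the maximal β-PEA response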
T1 construct: expressed in transfected cells; host or cells: HEK293T
T1 sequence (Q96RJ0 1-339 I290N): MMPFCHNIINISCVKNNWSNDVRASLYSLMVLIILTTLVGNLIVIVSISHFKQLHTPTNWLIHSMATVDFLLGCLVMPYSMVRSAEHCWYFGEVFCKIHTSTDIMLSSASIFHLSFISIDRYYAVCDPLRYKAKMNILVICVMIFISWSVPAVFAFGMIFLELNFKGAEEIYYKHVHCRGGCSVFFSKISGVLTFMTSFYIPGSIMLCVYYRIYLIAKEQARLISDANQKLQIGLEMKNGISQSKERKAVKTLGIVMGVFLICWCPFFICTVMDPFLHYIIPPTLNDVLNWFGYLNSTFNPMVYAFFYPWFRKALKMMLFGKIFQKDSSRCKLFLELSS

[2] = target: T2, β2AR-Nterm-hTA1-F112^3.41W (CryoEM Construct) (Homo sapiens, UniProt Q96RJ0, F112W); test: GloSensor cAMP accumulation assay, cryoEM construct; conditions: CryoEM Construct, n=2;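 further: cells transiently co-transfected with the receptor construct and GloSensor cAMP biosensor, luminescence read after 30 min compound exposure at room temperature in the dark as cAMP accumulation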
T2 construct: FLAG (N); 10xHis (N); TEV protease site (N); expressed in transfected cells; host or cells: HEK293T
T2 sequence (Q96RJ0 with tags, fused parts or gaps F112W): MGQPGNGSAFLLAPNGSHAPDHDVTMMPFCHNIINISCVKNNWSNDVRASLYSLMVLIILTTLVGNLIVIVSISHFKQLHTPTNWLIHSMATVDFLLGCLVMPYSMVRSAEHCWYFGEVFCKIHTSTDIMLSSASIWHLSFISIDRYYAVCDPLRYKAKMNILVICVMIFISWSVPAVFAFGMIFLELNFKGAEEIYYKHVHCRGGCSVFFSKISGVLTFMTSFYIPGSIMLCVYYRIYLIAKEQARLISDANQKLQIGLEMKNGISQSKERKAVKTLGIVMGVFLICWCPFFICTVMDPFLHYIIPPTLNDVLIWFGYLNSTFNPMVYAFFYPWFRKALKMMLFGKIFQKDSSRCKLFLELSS

[3] = target: T3, hTA1 (Homo sapiens, UniProt Q96RJ0); test: GloSensor cAMP accumulation assay, concentration response, wild-type hTA1 in transfected HEK293T cells; conditions: for Emax: HEK-293T; for Dose-response curves for asenapine vs endogenous trace amines / Normalized Luminescence Counts for WT hTA1: log[Compound]; for Dose-response curves for asenapine vs endogenous trace amines: replicate values (N=2); for Normalized Luminescence Counts for WT hTA1: replicate wells;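 on all read-outs here: luminescence read after 30 min compound exposure at room temperature in cells preloaded with D-Luciferin, reflecting Gs-driven cAMP rise, efficacy scaled to the maximal β-PEA response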
T3 construct: expressed in transfected cells; host or cells: HEK293T
T3 sequence (Q96RJ0 1-339): T1 sequence (Q96RJ0 1-339 I290N) with N290I

[4] = target: T4, hTA1 C13S (Homo sapiens, UniProt Q96RJ0, C13S); test: GloSensor cAMP accumulation assay, C13S mutant; conditions: C13S, n=2
T4 construct: expressed in transfected cells; host or cells: HEK293T
T4 sequence (Q96RJ0 1-339 C13S): T1 sequence (Q96RJ0 1-339 I290N) with C13S, N290I

[5] = read-out: Span ± SEM (Emax normalized to β-PEA)

For `CN1CC2c3ccccc3Oc3ccc(Cl)cc3C2C1` (stereo not drawn) [asenapine], the “reduction in potency vs wild type” value ([1]; I290N) was 4 fold, the “Emax values of Asenapine” value ([1]; I290N, Mean of one experiment) was 77.7708 and the Emax ([1]; I290N, Mean of one experiment, read-out: Emax values of Asenapine) was 90.3%. The EC50 ([1]; I290N, Mean of one experiment, read-out: pEC50 values of Asenapine (converted)) was 1390 nM and 721 nM, the EC50 ([1]; I290N, n=2, read-out: EC50) was 1000 nM and the Emax ([1]; I290N, n=2, read-out: Span ± SEM (Emax normalized to β-PEA)) was 84 ± 6.25%. For the same compound, the EC50 ([1]; I290N, n=2, read-out: pEC50 ± SEM (converted)) was 1000 nM, the Emax ([1]; I290N, relative to β-PEA, read-out: Emax) was 84% and the “ΔEmax values (each mutant value - WT average), I290N, Mean” value ([1]; hTA1 I290N mutant vs WT average, Figure 6B, each line is one experiment (3 replicates)) was 1.57 and -10.9365. The EC50 ([2]; read-out: EC50) was 51.8 nM, the Emax [2, 5] was 95.2 ± 1.98% and the EC50 ([2]; read-out: pEC50 ± SEM (converted)) was 52.5 nM. For the same compound, the Emax ([3]; WT, Avg of the experiment means, read-out: Emax values, Avg) was 88.7%, the Emax ([3]; WT, Mean of one experiment (3 replicates), read-out: Emax values) was 91% and the Emax ([3]; wt hTA1, relative to β-PEA, read-out: Emax) was 88.7%. For the same compound, the “Emax values, Avg” value ([3]; WT, Asenapine, average of the two experiments) was 88.71, the “Emax values, Mean” value ([3]; WT, Asenapine, mean of one experiment, 3 replicates) was 91.0389 and 86.3756 and the Emax values ([3]; WT, Mean of one experiment (3 replicates)) was 86.3756. The EC50 ([3]; WT, Mean of one experiment (3 replicates), read-out: pEC50 values (converted)) was 279 nM, the “Dose-response curves for asenapine vs endogenous trace amines” value ([3]; M = -5) was 79.6771 and 96.2124 and 92.251 and 83.6538 and 87.8328 and 80.7895 and the “Normalized Luminescence Counts for WT hTA1” value ([3]; M = -5) was 83.6538 and 87.8328 and 80.7895 and 79.6771 and 96.2124 and 92.251. For the same compound, the “Dose-response curves for asenapine vs endogenous trace amines” value ([3]; M = -5.522) was 74.87 and 93.5418 and 84.1725 and 79.0052 and 76.9861 and 71.9618, the “Normalized Luminescence Counts for WT hTA1” value ([3]; M = -5.522) was 79.0052 and 76.9861 and 71.9618 and 74.87 and 93.5418 and 84.1725 and the “Dose-response curves for asenapine vs endogenous trace amines” value ([3]; M = -6) was 68.5274 and 68.3939 and 69.9517 and 72.9948 and 71.8209 and 62.9463. The “Normalized Luminescence Counts for WT hTA1” value ([3]; M = -6) was 72.9948 and 71.8209 and 62.9463 and 68.5274 and 68.3939 and 69.9517, the “Dose-response curves for asenapine vs endogenous trace amines” value ([3]; M = -6.522) was 47.5189 and 49.5663 and 40.1525 and 38.2946 and 48.7657 and 45.4788 and the “Normalized Luminescence Counts for WT hTA1” value ([3]; M = -6.522) was 38.2946 and 48.7657 and 45.4788 and 47.5189 and 49.5663 and 40.1525. The “Dose-response curves for asenapine vs endogenous trace amines” value ([3]; M = -7) was 27.8234 and 34.8114 and 20.9244 and 18.9489 and 23.9262 and 21.7193, the “Normalized Luminescence Counts for WT hTA1” value ([3]; M = -7) was 18.9489 and 23.9262 and 21.7193 and 27.8234 and 34.8114 and 20.9244 and the “Dose-response curves for asenapine vs endogenous trace amines” value ([3]; M = -7.522) was 9.085 and 11.3326 and 6.214 and 4.299 and 6.271 and 7.5856. For the same compound, the “Normalized Luminescence Counts for WT hTA1” value ([3]; M = -7.522) was 4.299 and 6.271 and 7.5856 and 9.085 and 11.3326 and 6.214, the “Dose-response curves for asenapine vs endogenous trace amines” value ([3]; M = -8) was 5.413 and 6.147 and 6.2585 and 3.876 and 4.862 and 2.139 and the “Normalized Luminescence Counts for WT hTA1” value ([3]; M = -8) was 3.876 and 4.862 and 2.139 and 5.413 and 6.147 and 6.2585. For the same compound, the “Dose-response curves for asenapine vs endogenous trace amines” value ([3]; M = -8.522) was 0.6725 and 1.273 and 1.229 and 1.059 and 0.777 and -0.209, the “Normalized Luminescence Counts for WT hTA1” value ([3]; M = -8.522) was 1.059 and 0.777 and -0.209 and 0.6725 and 1.273 and 1.229 and the “Dose-response curves for asenapine vs endogenous trace amines” value ([3]; M = -9) was -0.2399 and 0.5835 and -0.9298 and -0.4438 and -0.06817 and 0.0727. For the same compound, the “Normalized Luminescence Counts for WT hTA1” value ([3]; M = -9) was -0.4438 and -0.06817 and 0.0727 and -0.2399 and 0.5835 and -0.9298, the “Dose-response curves for asenapine vs endogenous trace amines” value ([3]; M = -9.522) was -1.597 and -0.5292 and -1.353 and -0.209 and -0.5377 and 0.777 and the “Normalized Luminescence Counts for WT hTA1” value ([3]; M = -9.522) was -0.209 and -0.5377 and 0.777 and -1.597 and -0.5292 and -1.353. For the same compound, the “Dose-response curves for asenapine vs endogenous trace amines” value ([3]; M = -10) was -0.6182 and -0.1064 and -0.8408 and -0.7725 and -0.5377 and -0.6786, the “Normalized Luminescence Counts for WT hTA1” value ([3]; M = -10) was -0.7725 and -0.5377 and -0.6786 and -0.6182 and -0.1064 and -0.8408 and the “Dose-response curves for asenapine vs endogenous trace amines” value ([3]; M = -10.522) was -0.9521 and -0.1509 and -1.197 and -0.8195 and -1.665 and -1.101. The “Normalized Luminescence Counts for WT hTA1” value ([3]; M = -10.522) was -0.8195 and -1.665 and -1.101 and -0.9521 and -0.1509 and -1.197, the “Dose-response curves for asenapine vs endogenous trace amines” value ([3]; M = -11) was -0.9075 and -0.3289 and -0.7295 and -0.3969 and 0.2136 and 0.9649 and the “Normalized Luminescence Counts for WT hTA1” value ([3]; M = -11) was -0.3969 and 0.2136 and 0.9649 and -0.9075 and -0.3289 and -0.7295. The “Dose-response curves for asenapine vs endogenous trace amines” value ([3]; M = -11.522) was -0.863 and -0.01735 and -1.531 and -0.9603 and -0.5377 and -0.4908, the “Normalized Luminescence Counts for WT hTA1” value ([3]; M = -11.522) was -0.9603 and -0.5377 and -0.4908 and -0.863 and -0.01735 and -1.531 and the “Dose-response curves for asenapine vs endogenous trace amines” value ([3]; M = -12) was -1.108 and -0.6405 and -1.286 and -1.101 and -0.6786 and -1.477. The “Normalized Luminescence Counts for WT hTA1” value ([3]; M = -12) was -1.101 and -0.6786 and -1.477 and -1.108 and -0.6405 and -1.286, the “Dose-response curves for asenapine vs endogenous trace amines” value ([3]; M = -12.522) was -1.575 and -1.241 and -2.02 and -0.5377 and -1.054 and -1.242 and the “Normalized Luminescence Counts for WT hTA1” value ([3]; M = -12.522) was -0.5377 and -1.054 and -1.242 and -1.575 and -1.241 and -2.02. The EC50 ([3]; wt hTA1, HEK293T, n=3, read-out: EC50) was 274 nM, the EC50 ([4]; read-out: EC50) was 321 nM and the Emax [4, 5] was 77.1 ± 4.84%.
